Reference: patent US5250416A, “Method for highly sensitive determination of NADH using kinase” (Noda Institute for Scientific Rsearch, priority 1991, dated 1993)

Assays:
[1] = tested on: NADH kinase (the present enzyme); assay: Inhibition, activation and stabilization of the present enzyme; format: biochemical, Pichia membranaefaciens
[2] = tested on: NADH kinase (the present enzyme); assay: Km value (Michaelis constant) of the present enzyme for NADH; format: biochemical, Pichia membranaefaciens; conditions: 30° C., pH 7.8 (Tris buffer)
Experimental: 0.9 Milliliters of the substrate solution containing NADH shown in Table 2 was preheated to 30° C., after which 0.1 ml of a solution of the present enzyme having an adequate concentration was added, and the reaction was carried out at 30° C. for 20 minutes. Thereafter, the reaction was terminated by heat treatment at 100° C. for 2 minutes, and the denatured protein was removed. Then, the amount of NADPH produced by the reaction of the substrate was measured as follows. As a control solution, there was used a mixture of the substrate solution and the present enzyme in which the reaction had been terminated immediately after mixing them.
With 1 ml of each of the reaction solutions obtained in the above was mixed 1 ml of a color-producing solution having the same composition as that of the color-producing solution described in the above item "Substrate specificity". […] Simultaneously with the reaction, the change of absorbance at 600 nm was measured with the lapse of time, and the difference (ΔOD600nm /min) between absorbance values 1 minute and 2 minutes after the initiation of the coloration reaction was obtained as a measured value. By the use of a calibration curve of ΔOD600nm /min versus NADPH concentration previously prepared using NADPH solutions of known concentrations, the amount of the NADPH produced was calculated from the measured value.

NADH kinase A = target: T1, NADH kinase A (Saccharomyces cerevisiae, UniProt Q06892); conditions: as substrate of NADH kinase A; from reference; cited from earlier work
T1 sequence (Q06892 1-414): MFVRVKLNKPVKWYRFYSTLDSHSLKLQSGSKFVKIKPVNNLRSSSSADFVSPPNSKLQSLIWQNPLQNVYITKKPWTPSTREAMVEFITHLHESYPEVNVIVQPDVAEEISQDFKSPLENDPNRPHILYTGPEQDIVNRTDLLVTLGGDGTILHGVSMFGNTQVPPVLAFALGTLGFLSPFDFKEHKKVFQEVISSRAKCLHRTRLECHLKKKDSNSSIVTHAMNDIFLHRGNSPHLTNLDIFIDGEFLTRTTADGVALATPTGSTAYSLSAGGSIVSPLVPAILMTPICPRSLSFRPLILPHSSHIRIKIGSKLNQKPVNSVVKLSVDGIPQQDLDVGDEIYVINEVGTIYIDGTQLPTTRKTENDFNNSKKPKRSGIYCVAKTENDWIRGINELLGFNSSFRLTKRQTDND

[3] = tested on: NADH kinase (the present enzyme); assay: Substrate specificity of the present enzyme (NADH kinase); format: biochemical, Pichia membranaefaciens; conditions: for Relative activity (%): as substrate of the present enzyme, 30° C., 20 minutes, pH 8.5, relative to NADH = 100; for Action of the present enzyme on the substrate (in words): substrate specificity
Experimental: The substrate specificity of the present enzyme was examined under the following reaction conditions.
To 0.9 ml of each of the substrate solutions containing NADH or NAD^+, respectively, shown in Table 1 was added 0.1 ml of 23 U/ml of the present enzyme, and the reaction was carried out at 30° C. for 20 minutes. Then, the reaction was terminated by heat treatment at 100° C. for 2 minutes, and the denatured protein was removed, after which the amount of NADPH or NADP^+ produced by the reaction of the corresponding substrate was measured as follows. As a control solution, there was used a mixture of each substrate solution and the present enzyme in which the reaction had been terminated immediately after mixing them.
With 1 ml of each of the reaction solutions obtained in the above was mixed 1 ml of a color-producing solution consisting of 10 mM G-6-P, 50 mM HEPPS buffer (pH 8.0), 10 mM magnesium chloride, 0.1% bovine serum albumin, 2.5 IU/ml G-6-P dehydrogenase (NADP^+ -dependent), 5 IU/ml diaphorase and 250 μM 2,6-dichlorophenolindophenol. The resulting mixture was immediately introduced into a constant-temperature cuvette of STASAR III spectrophotometer of Gilford and subjected to reaction at 30° C. Simultaneously with the reaction, the change of absorbance at 600 nm was measured with the lapse of time, and the difference (ΔOD600nm /min) between absorbance values 1 minute and 2 minutes after the initiation of the coloration reaction was taken as a measured value. As to the relative activity (%), a measured value (ΔOD600nm /min) obtained by using NAD^+ as substrate was shown as a percentage based on a measured value (ΔOD600nm /min) obtained by using NADH as substrate.

NADH kinase B = target: T2, NADH kinase B (Saccharomyces cerevisiae, UniProt Q06892); conditions: as substrate of NADH kinase B; from reference; cited from earlier work
T2 sequence (Q06892 1-414): T1 sequence (Q06892 1-414)

Row | Stabilization of the present enzyme [1] | SMILES | Km [2] | Specificity (relative activity, NADH = 100) (NADH kinase A) | Relative activity (%) [3] | Action of the present enzyme on the substrate (in words) [3] | Specificity (relative activity, NADH = 100) (NADH kinase B)
1 | stabilized | O[C@H](CS)[C@H](O)CS (racemic) [dithiothreitol] |  |  |  |  | 
2 | stabilized | CC(=O)N[C@@H](CS)C(=O)O [N-acetyl-L-cysteine] |  |  |  |  | 
3 |  | NC(=O)C1=CN([C@@H]2O[C@H](COP(=O)(O)OP(=O)(O)OC[C@H]3O[C@@H](n4cnc5c(N)ncnc54)[C@H](O)[C@@H]3O)[C@@H](O)[C@H]2O)C=CC1 [NADH] | 27 µM | 100 | 100% | very high specificity | 100
4 |  | NC(=O)c1ccc[n+]([C@@H]2O[C@H](COP(=O)([O-])OP(=O)(O)OC[C@H]3O[C@@H](n4cnc5c(N)ncnc54)[C@H](O)[C@@H]3O)[C@@H](O)[C@H]2O)c1 [NAD^+] |  | 1.7 | 0.9% | hardly acts | 1.6
